Laboratory results: ChEMBL document CHEMBL3797068, “eCF309: a potent, selective and cell-permeable mTOR inhibitor” (Medchemcomm, 2016)
Calls of active or inactive are those of the source. No cut-off for these calls is given here.

What was measured:
MCF7 [1] = assay: Cytotoxicity against human MCF7 cells after 5 days by Presto blue reagent-based fluorescence analysis; assay type: functional, cell-based; settings: for EC50: MCF7, 120 h
[2] = target: T1, Phosphatidylinositol 4,5-bisphosphate 3-kinase catalytic subunit alpha isoform (Homo sapiens, UniProt P42336); assay: Inhibition of PI3Kalpha (unknown origin) using (poly [Glu, Tyr] 4:1) as substrate assessed as incorporation of 33P in substrate by [gamma33P] ATP-based kinase assay
[3] = target: Tyrosine-protein kinase Fyn (Homo sapiens, UniProt P06241); assay: Inhibition of human FYN using (poly [Glu, Tyr] 4:1) as substrate assessed as incorporation of 33P in substrate by [gamma33P] ATP-based kinase assay
[4] = target: T2, Phosphatidylinositol 4,5-bisphosphate 3-kinase catalytic subunit gamma isoform (Homo sapiens, UniProt P48736); assay: Inhibition of PI3Kgamma (unknown origin) using (poly [Glu, Tyr] 4:1) as substrate assessed as incorporation of 33P in substrate by [gamma33P] ATP-based kinase assay
Target sequence in this assay (P48736 whole entry, canonical isoform): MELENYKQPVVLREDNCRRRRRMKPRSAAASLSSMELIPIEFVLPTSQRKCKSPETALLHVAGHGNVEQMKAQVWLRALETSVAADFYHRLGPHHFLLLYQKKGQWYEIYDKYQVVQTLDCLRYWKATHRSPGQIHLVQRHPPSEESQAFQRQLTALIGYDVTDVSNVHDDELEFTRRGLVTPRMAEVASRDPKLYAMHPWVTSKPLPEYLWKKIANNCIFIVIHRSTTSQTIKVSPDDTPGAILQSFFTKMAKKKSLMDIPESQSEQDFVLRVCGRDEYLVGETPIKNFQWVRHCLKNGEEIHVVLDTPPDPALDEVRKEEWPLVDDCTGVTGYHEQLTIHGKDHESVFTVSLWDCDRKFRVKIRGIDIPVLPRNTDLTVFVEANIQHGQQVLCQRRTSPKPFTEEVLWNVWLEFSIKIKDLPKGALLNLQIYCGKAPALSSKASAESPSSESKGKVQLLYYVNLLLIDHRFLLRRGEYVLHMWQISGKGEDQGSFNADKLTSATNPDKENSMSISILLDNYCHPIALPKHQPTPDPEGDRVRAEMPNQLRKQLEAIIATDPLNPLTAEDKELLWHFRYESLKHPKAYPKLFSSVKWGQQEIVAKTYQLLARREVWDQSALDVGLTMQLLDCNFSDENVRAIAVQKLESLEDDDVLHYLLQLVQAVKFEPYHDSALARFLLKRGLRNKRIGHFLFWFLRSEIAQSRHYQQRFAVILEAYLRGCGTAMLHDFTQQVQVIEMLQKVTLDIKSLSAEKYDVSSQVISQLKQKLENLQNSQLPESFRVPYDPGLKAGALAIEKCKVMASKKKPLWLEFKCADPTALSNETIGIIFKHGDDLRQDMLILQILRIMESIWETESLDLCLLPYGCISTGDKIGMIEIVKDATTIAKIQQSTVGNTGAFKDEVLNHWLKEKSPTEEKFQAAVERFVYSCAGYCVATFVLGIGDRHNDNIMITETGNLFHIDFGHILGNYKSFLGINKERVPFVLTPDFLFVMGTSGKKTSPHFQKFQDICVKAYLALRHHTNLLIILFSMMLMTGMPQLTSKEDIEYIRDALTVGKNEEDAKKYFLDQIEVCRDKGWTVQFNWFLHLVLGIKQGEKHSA

MDA-MB-231 [5] = assay: Cytotoxicity against human MDA-MB-231 cells after 5 days by Presto blue reagent-based spectrofluorometric analysis; assay type: functional, cell-based; settings: MDA-MB-231, 120 h
MCF7 [6] = assay: Inhibition of mTORC2 in human MCF7 cells assessed as reduction in phosphorylated AKT level at 30 nM preincubated for 30 mins followed by serum stimulation for 1 hr by Western blot analysis; assay type: cell-based
[7] = target: T1, Phosphatidylinositol 4,5-bisphosphate 3-kinase catalytic subunit alpha isoform; assay: Inhibition of human PI3Kalpha at 10 uM by kinome profiling method
MCF7 [8] = assay: Inhibition of mTORC2 in human MCF7 cells assessed as reduction in phosphorylated AKT level preincubated for 30 mins followed by serum stimulation for 1 hr by Western blot analysis; assay type: cell-based
[9] = target: T3, Epithelial discoidin domain-containing receptor 1 (Homo sapiens, UniProt Q08345); assay: Inhibition of human DDR1 using (poly [Glu, Tyr] 4:1) as substrate assessed as incorporation of 33P in substrate by [gamma33P] ATP-based kinase assay
T3 sequence (Q08345 whole entry, the tested form may be a part, canonical isoform): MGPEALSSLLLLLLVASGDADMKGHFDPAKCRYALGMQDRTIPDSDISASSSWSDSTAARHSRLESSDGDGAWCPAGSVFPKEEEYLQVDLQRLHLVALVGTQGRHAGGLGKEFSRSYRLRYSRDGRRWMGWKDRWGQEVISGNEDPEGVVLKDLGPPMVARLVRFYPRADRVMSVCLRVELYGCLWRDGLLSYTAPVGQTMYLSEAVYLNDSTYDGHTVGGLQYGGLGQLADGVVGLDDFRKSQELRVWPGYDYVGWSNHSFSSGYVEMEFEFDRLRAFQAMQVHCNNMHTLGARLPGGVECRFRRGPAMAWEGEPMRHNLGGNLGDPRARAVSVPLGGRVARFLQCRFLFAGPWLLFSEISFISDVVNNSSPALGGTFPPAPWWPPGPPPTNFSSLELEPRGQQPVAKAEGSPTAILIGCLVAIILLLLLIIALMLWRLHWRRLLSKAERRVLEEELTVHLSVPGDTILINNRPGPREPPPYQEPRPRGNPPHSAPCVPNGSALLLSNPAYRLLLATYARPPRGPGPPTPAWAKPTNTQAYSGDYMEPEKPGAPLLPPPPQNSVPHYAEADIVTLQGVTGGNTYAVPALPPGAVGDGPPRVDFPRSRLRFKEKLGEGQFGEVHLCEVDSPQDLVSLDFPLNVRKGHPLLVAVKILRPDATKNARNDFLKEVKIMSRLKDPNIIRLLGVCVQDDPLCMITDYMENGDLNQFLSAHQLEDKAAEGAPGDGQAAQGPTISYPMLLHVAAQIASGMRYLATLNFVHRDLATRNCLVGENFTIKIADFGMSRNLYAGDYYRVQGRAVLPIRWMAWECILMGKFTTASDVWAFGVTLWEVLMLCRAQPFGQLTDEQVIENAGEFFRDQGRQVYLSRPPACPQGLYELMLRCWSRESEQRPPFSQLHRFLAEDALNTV

[10] = target: T4, Phosphatidylinositol 4,5-bisphosphate 3-kinase catalytic subunit beta isoform (Homo sapiens, UniProt P42338); assay: Inhibition of PI3Kbeta (unknown origin) using (poly [Glu, Tyr] 4:1) as substrate assessed as incorporation of 33P in substrate by [gamma33P] ATP-based kinase assay
mTORC1 (Homo sapiens) [11] = target: T5, mTORC1 (Homo sapiens) (UniProt P42345+Q8N122+Q9BVC4); assay: Inhibition of mTORC1 in human MCF7 cells assessed as reduction in phosphorylated S6 at 30 nM preincubated for 30 mins followed by serum stimulation for 1 hr by Western blot analysis; assay type: cell-based
[12] = target: T3, Epithelial discoidin domain-containing receptor 1; assay: Inhibition of human DDR1 at 10 uM by kinome profiling method
[13] = target: T6, DNA-dependent protein kinase catalytic subunit (Homo sapiens, UniProt P78527); assay: Inhibition of human DNA-PK using (poly [Glu, Tyr] 4:1) as substrate assessed as incorporation of 33P in substrate by [gamma33P] ATP-based kinase assay
[14] = target: T2, Phosphatidylinositol 4,5-bisphosphate 3-kinase catalytic subunit gamma isoform; assay: Inhibition of PI3Kgamma (unknown origin) using PIP2 as substrate by HTRF assay
Target sequence in this assay (P48736 whole entry, canonical isoform): as the sequence (P48736 whole entry, canonical isoform) above

[15] = target: Proto-oncogene tyrosine-protein kinase receptor Ret (Homo sapiens, UniProt P07949); assay: Inhibition of human RET using (poly [Glu, Tyr] 4:1) as substrate assessed as incorporation of 33P in substrate by [gamma33P] ATP-based kinase assay
[16] = target: Tyrosine-protein kinase ABL1 (Homo sapiens, UniProt P00519); assay: Inhibition of human ABL using (poly [Glu, Tyr] 4:1) as substrate assessed as incorporation of 33P in substrate by [gamma33P] ATP-based kinase assay
[17] = target: Mast/stem cell growth factor receptor Kit (Homo sapiens, UniProt P10721); assay: Inhibition of human KIT using (poly [Glu, Tyr] 4:1) as substrate assessed as incorporation of 33P in substrate by [gamma33P] ATP-based kinase assay
Mast/stem cell growth factor receptor Kit, sequence (P10721 whole entry): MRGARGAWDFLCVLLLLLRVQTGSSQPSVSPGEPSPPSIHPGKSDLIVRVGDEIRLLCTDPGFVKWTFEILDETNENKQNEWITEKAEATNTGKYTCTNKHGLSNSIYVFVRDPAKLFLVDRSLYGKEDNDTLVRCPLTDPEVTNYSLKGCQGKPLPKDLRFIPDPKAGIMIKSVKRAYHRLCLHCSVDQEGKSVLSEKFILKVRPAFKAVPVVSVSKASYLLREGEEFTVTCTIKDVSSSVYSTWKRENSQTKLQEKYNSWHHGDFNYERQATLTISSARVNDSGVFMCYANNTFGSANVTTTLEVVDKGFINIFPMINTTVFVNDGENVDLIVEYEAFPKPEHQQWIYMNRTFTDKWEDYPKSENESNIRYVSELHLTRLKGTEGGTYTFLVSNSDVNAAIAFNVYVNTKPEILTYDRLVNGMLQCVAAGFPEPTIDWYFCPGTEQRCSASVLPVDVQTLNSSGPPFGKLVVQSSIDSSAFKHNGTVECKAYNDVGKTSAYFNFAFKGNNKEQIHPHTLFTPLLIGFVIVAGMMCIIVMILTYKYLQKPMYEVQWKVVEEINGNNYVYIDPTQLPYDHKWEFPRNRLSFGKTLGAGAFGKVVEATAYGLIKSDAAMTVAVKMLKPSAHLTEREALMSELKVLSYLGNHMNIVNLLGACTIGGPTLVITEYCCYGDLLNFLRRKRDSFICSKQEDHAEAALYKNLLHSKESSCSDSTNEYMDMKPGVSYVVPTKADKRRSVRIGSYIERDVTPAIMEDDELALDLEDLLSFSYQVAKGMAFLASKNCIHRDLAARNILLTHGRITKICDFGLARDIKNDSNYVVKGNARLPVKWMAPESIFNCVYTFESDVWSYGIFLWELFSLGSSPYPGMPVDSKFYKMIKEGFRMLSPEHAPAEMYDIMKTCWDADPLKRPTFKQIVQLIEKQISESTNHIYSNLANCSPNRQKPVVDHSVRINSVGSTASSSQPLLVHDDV

[18] = target: Tyrosine-protein kinase Blk (Homo sapiens, UniProt P51451); assay: Inhibition of human BLK using (poly [Glu, Tyr] 4:1) as substrate assessed as incorporation of 33P in substrate by [gamma33P] ATP-based kinase assay
Tyrosine-protein kinase Blk, sequence (P51451 whole entry): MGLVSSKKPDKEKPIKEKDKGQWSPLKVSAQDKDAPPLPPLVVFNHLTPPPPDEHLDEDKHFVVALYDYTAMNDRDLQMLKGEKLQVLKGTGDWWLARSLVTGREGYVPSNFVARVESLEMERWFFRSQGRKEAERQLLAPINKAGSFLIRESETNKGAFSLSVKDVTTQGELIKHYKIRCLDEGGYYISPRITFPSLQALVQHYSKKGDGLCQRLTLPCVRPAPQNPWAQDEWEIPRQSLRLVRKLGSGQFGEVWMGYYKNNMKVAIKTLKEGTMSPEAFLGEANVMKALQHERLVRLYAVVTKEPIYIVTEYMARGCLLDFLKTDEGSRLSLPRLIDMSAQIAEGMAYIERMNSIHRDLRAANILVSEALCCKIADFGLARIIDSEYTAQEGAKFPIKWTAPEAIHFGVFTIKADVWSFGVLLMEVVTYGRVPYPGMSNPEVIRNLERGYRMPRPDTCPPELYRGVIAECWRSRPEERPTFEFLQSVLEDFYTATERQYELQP

[19] = target: Tyrosine-protein kinase Yes (Homo sapiens, UniProt P07947); assay: Inhibition of human YES using (poly [Glu, Tyr] 4:1) as substrate assessed as incorporation of 33P in substrate by [gamma33P] ATP-based kinase assay
MDA-MB-231 [20] = assay: Cell cycle arrest in human MDA-MB-231 cells assessed as increase in G0/G1 population after 24 hrs by Hoechst 33342 staining-based fluorescence analysis; assay type: functional
[21] = target: T2, Phosphatidylinositol 4,5-bisphosphate 3-kinase catalytic subunit gamma isoform; assay: Inhibition of human PI3Kgamma at 10 uM by kinome profiling method
Target sequence in this assay (P48736 whole entry, looked up, canonical isoform): as the sequence (P48736 whole entry, canonical isoform) above

[22] = target: T1, Phosphatidylinositol 4,5-bisphosphate 3-kinase catalytic subunit alpha isoform; assay: Inhibition of PI3Kalpha (unknown origin) using PIP2 as substrate by HTRF assay
[23] = target: T7, Serine/threonine-protein kinase mTOR (Homo sapiens, UniProt P42345); assay: Inhibition of human mTOR at 10 uM by kinome profiling method
[24] = Cell cycle arrest in human PC3 cells assessed as increase in G0/G1 population after 24 hrs by Hoechst 33342 staining-based fluorescence analysis; assay type: functional; settings: PC-3
[25] = target: T8, Phosphatidylinositol 4,5-bisphosphate 3-kinase catalytic subunit delta isoform (Homo sapiens, UniProt O00329); assay: Inhibition of PI3Kdelta (unknown origin) using PIP2 as substrate by HTRF assay
T8 sequence (O00329 whole entry): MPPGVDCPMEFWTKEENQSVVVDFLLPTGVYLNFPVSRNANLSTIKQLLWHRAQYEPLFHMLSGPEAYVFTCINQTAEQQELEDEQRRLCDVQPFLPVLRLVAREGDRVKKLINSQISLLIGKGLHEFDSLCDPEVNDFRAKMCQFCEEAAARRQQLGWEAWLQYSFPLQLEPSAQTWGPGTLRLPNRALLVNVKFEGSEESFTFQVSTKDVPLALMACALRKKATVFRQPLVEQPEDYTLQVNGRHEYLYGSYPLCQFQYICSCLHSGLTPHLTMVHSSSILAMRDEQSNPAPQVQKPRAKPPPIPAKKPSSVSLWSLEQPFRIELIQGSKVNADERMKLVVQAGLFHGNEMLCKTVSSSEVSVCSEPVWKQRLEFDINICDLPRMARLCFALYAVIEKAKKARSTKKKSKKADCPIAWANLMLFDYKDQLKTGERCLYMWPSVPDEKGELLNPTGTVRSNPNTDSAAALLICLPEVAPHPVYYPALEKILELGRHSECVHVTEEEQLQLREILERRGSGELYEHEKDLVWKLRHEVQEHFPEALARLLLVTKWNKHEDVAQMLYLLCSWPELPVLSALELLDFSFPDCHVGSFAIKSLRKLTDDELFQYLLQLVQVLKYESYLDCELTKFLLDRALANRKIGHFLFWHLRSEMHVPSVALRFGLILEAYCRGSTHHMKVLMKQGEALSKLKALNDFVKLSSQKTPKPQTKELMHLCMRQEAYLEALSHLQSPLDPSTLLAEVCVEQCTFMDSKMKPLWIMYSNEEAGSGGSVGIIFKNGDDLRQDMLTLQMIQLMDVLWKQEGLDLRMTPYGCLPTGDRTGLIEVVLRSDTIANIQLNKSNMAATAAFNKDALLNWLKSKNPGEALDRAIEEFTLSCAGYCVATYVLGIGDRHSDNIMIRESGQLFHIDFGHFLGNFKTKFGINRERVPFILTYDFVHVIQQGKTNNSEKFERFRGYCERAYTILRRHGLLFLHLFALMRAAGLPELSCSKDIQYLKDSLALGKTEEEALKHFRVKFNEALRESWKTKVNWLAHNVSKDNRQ

[26] = target: T8, Phosphatidylinositol 4,5-bisphosphate 3-kinase catalytic subunit delta isoform; assay: Inhibition of PI3Kdelta (unknown origin) using (poly [Glu, Tyr] 4:1) as substrate assessed as incorporation of 33P in substrate by [gamma33P] ATP-based kinase assay
[27] = target: T6, DNA-dependent protein kinase catalytic subunit; assay: Inhibition of human DNA-PK at 10 uM by kinome profiling method
MCF7 [28] = assay: Cell cycle arrest in human MCF7 cells assessed as increase in G0/G1 population after 24 hrs by Hoechst 33342 staining-based fluorescence analysis; assay type: functional
[29] = target: Platelet-derived growth factor receptor alpha (Homo sapiens, UniProt P16234); assay: Inhibition of human PDGFRalpha using (poly [Glu, Tyr] 4:1) as substrate assessed as incorporation of 33P in substrate by [gamma33P] ATP-based kinase assay
Platelet-derived growth factor receptor alpha, sequence (P16234 whole entry): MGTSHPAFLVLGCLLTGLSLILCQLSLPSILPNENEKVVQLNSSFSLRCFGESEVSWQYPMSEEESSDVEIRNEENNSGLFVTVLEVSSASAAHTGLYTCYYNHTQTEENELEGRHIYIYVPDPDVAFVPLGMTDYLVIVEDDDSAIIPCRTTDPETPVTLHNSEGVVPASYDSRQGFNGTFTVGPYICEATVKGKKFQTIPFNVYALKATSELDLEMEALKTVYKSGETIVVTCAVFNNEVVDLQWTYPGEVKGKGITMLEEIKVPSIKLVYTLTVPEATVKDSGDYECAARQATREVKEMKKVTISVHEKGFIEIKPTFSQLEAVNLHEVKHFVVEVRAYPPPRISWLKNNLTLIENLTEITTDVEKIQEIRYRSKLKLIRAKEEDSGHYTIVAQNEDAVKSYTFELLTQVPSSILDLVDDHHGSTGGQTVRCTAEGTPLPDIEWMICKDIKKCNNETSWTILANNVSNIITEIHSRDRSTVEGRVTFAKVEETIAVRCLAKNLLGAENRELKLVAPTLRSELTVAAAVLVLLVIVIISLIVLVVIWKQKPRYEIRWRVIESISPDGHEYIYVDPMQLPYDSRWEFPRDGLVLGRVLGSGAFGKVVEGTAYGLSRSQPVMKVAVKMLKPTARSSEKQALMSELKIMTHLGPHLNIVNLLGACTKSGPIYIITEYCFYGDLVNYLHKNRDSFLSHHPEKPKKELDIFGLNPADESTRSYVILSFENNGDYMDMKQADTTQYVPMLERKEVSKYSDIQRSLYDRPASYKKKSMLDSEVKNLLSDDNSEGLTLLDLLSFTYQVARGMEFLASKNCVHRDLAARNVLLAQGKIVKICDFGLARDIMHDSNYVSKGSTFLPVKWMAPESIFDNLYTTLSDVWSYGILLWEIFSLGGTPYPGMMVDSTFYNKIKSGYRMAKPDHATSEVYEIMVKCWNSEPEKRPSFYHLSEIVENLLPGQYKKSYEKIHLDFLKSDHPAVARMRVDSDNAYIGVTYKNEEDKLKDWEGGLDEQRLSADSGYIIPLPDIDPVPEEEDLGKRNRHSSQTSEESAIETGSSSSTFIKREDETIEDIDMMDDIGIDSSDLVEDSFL

[30] = target: Proto-oncogene tyrosine-protein kinase Src (Homo sapiens, UniProt P12931); assay: Inhibition of human SRC using (poly [Glu, Tyr] 4:1) as substrate assessed as incorporation of 33P in substrate by [gamma33P] ATP-based kinase assay
mTORC1 (Homo sapiens) [31] = target: T5, mTORC1 (Homo sapiens); assay: Inhibition of mTORC1 in human MCF7 cells assessed as reduction in phosphorylated P70S6K at 30 nM preincubated for 30 mins followed by serum stimulation for 1 hr by Western blot analysis; assay type: cell-based
mTORC1 (Homo sapiens) [32] = target: T5, mTORC1 (Homo sapiens); assay: Inhibition of mTORC1 in human MCF7 cells assessed as reduction in phosphorylated S6 preincubated for 30 mins followed by serum stimulation for 1 hr by Western blot analysis; assay type: cell-based
[33] = Cytotoxicity against human PC3 cells after 5 days by Presto blue reagent-based spectrofluorometric analysis; assay type: functional, cell-based; settings: PC-3, 120 h
mTORC1 (Homo sapiens) [34] = target: T5, mTORC1 (Homo sapiens); assay: Inhibition of mTORC1 in human MCF7 cells assessed as reduction in phosphorylated P70S6K preincubated for 30 mins followed by serum stimulation for 1 hr by Western blot analysis; assay type: cell-based
[35] = target: T4, Phosphatidylinositol 4,5-bisphosphate 3-kinase catalytic subunit beta isoform; assay: Inhibition of PI3Kbeta (unknown origin) using PIP2 as substrate by HTRF assay
[36] = target: T7, Serine/threonine-protein kinase mTOR; assay: Inhibition of human mTOR using (poly [Glu, Tyr] 4:1) as substrate assessed as incorporation of 33P in substrate by [gamma33P] ATP-based kinase assay
[37] = target: T7, Serine/threonine-protein kinase mTOR; assay: Inhibition of recombinant human mTOR by LanthaScreen Kinase assay

Structure (SMILES)	IC50 [2] [nM]	IC50 [3] [µM]	IC50 [4] [nM]	IC50 [9] [nM]	IC50 [10] [µM]	IC50 [13] [nM]	IC50 [14] [nM]	IC50 [15] [µM]	IC50 [16] [µM]	IC50 [17] [µM]	IC50 [18] [µM]	IC50 [19] [µM]	IC50 [22] [nM]	IC50 [25] [nM]	IC50 [29] [µM]	Activity (MCF7 [1])	EC50 (MDA-MB-231 [5]) [nM]	EC50 (MCF7 [1]) [nM]	Activity (MDA-MB-231 [20])	Activity [24]	other results
Nc1ncnc2c1c(-c1cnc3[nH]ccc3c1)nn2CC1OCCO1	–	–	–	–	–	–	–	–	–	–	–	–	–	–	–	Active	–	–	–	–	–
CNC(=O)c1cccc(-c2ccc3c(N4CCOC[C@@H]4C)nc(N4CCOC[C@@H]4C)nc3n2)c1	–	–	–	–	–	–	–	–	–	–	–	–	–	–	–	Active	–	–	–	–	–
CCOC(Cn1nc(-c2cnc3[nH]ccc3c2)c2c(N)ncnc21)OCC	–	–	–	–	–	–	–	–	–	> 100	> 100	–	–	–	> 100	Active	–	–	–	–	–

Further lines, with some results ahead:

IC50 [2] [nM]	IC50 [3] [µM]	IC50 [4] [nM]	IC50 [9] [nM]	IC50 [10] [µM]	IC50 [13] [nM]	IC50 [14] [nM]	IC50 [15] [µM]	IC50 [16] [µM]	IC50 [17] [µM]	IC50 [18] [µM]	IC50 [19] [µM]	IC50 [22] [nM]	IC50 [25] [nM]	IC50 [29] [µM]	Structure (SMILES)	Activity (MCF7 [1])	EC50 (MDA-MB-231 [5]) [nM]	EC50 (MCF7 [1]) [nM]	Activity (MDA-MB-231 [20])	Activity [24]	other results
981	> 100	1340	2110	> 100	320	1340	> 100	> 100	> 100	> 100	> 100	981	1840	> 100	CCOC(Cn1nc(-c2ccc3oc(N)nc3c2)c2c(N)ncnc21)OCC	–	72	8	Active	Active	inhibition (MCF7 [6]): 100%; inhibition [7]: 65%; inhibition (MCF7 [8]): Dose-dependent effect; inhibition (mTORC1 (Homo sapiens) [11]): 100%; inhibition [12]: 77%; inhibition [21]: 85%; inhibition [23]: 99%; IC50 [26]: 1840 nM; inhibition [27]: 90%; Activity (MCF7 [28]): Active; IC50 [30]: > 100 µM; inhibition (mTORC1 (Homo sapiens) [31]): 100%; inhibition (mTORC1 (Homo sapiens) [32]): Dose-dependent effect; EC50 [33]: 37 nM; inhibition (mTORC1 (Homo sapiens) [34]): Dose-dependent effect; IC50 [35]: > 100000 nM
300	> 100	99	–	5.6	–	–	> 100	9.92	> 100	> 100	> 100	–	–	> 100	COC(Cn1nc(-c2ccc3oc(N)nc3c2)c2c(N)ncnc21)OC	–	–	6.7	–	–	IC50 [36]: 25 nM; IC50 [26]: 505 nM; IC50 [30]: > 100 µM
–	–	–	4.7	–	3	5	–	–	–	–	–	3.5	7.3	–	Nc1nc2cc(-c3nn(CC4CCCC4)c4ncnc(N)c34)ccc2o1	–	12	1.7	Active	Active	IC50 [37]: 1.8 nM; Activity (MCF7 [28]): Active; EC50 [33]: 4 nM; IC50 [35]: 89 nM
